Entries after “also recorded” stand apart in the source; their conditions may differ. Read-outs that look alike come from different tables or passages of the source.
Experiments:
Assay type in all cases: cell-based
[1] = target: T1, hERG potassium channel (Homo sapiens, UniProt Q12809); experiment: Thallium flux assay, hERG-expressing cells; settings: hERG inhibition, thallium flux
T1 construct: expressed in transfected cells; host or cells: T-REx-293
Description: (§1) Cell Line Construction and Cell Culture. HEK-293 cells co-expressing human GIRK1/2 and rat mGlu8 were generated as previously described (Niswender et al., 2008). A HEK-293 cell line (ATCC, Manassas, Va.) expressing human GIRK1 and human GIRK2 was constructed by transfecting HEK-293 cells with GIRK1 and GIRK2 (Origene, Rockville, Md.) cloned into the pBudCE4.1 vector (Life Technologies, Carlsbad, Calif.) using FuGene 6 (Promega, Madison, Wis.) transfection reagent. Unless otherwise noted, other ion channel-expressing cells were prepared by transfecting HEK-293 cells with individual or combinations of subunits: GIRK1, pCMV6-A-BSD; GIRK2, pCMV6-A-puro; GIRK3, pCMV6-A-hygro; GIRK4, pCMV6-A-AC; Kv7.4, pIRESneo3. The Kir2.1 and hERG-expressing cell lines were made by transfecting T-REx-293 cells (Life Technologies, Carlsbad, Calif.) with Kir2.1 and Kv11.1, respectively, cloned into pcDNA5TO. Monoclonal cell lines were produced by limiting-dilution cloning of antibiotic-resistant cells and functional selection using the thallium flux assay described below. Unless otherwise noted, cells were maintained in Minimal Essential Medium, Alpha Medium (Mediatech, Manassas, Va.) supplemented with 10% fetal bovine serum (Sigma-Aldrich, Saint Louis, Mo.) and GlutaGro (Mediatech, Manassas, Va.), referred to henceforth as cell culture medium. Cell culture medium was further supplemented with selection antibiotics, as appropriate.
(§2) For thallium flux assays, cells were dislodged from tissue culture flasks using TrypLE Express (Life Technologies, Carlsbad, Calif.), transferred to a 50 mL centrifuge tube, and spun at 500×g for 2 min. The supernatant solution was removed by aspiration and the pellet was resuspended at concentration of ˜1000 cells/μL. Twenty μL/well of the cell suspension was transferred to 384-well, amine-coated assay plates (cat#354719, BD, Franklin Lakes, N.J.) using an electronic multichannel pipette. Plated cells were incubated overnight in a humidified 5% CO2 cell culture incubator at 37° C. […]

[2] = target: T2, hERG (Kv11.1) (Homo sapiens, UniProt Q12809); experiment: Thallium flux assay, hERG-expressing cells; settings: human, T-REx-293 cells expressing hERG (Kv11.1), pH 7.3, at 100 μM; 100% inhibition defined by maximally effective dofetilide; read-out: maximum inhibition of hERG
T2 construct: expressed in transfected cells; host or cells: T-REx-293
Description: as §1, §2

[3] = target: T3, GIRK2 (Homo sapiens, UniProt P48051); experiment: Thallium flux assay, HEK-293 cells expressing GIRK2 alone; settings: cell line GIRK2
T3 construct: expressed in transfected cells; host or cells: HEK-293
T3 sequence (P48051 1-423): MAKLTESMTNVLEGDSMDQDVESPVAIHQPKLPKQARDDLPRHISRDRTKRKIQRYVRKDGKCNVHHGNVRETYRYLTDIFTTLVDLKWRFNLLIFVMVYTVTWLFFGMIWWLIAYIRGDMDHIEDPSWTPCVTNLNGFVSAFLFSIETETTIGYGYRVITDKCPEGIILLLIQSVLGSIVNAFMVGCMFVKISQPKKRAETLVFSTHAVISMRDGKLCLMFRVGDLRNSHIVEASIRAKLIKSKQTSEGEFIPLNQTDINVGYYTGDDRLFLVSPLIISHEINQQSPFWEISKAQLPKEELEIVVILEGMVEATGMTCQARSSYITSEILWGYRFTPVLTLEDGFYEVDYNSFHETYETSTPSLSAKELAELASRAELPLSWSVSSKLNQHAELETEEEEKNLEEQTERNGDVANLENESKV
Description: as §1, with “Cell culture medium was further supplemented with selection antibiotics, as appropriate.” left out

T1 sequence (Q12809 whole entry): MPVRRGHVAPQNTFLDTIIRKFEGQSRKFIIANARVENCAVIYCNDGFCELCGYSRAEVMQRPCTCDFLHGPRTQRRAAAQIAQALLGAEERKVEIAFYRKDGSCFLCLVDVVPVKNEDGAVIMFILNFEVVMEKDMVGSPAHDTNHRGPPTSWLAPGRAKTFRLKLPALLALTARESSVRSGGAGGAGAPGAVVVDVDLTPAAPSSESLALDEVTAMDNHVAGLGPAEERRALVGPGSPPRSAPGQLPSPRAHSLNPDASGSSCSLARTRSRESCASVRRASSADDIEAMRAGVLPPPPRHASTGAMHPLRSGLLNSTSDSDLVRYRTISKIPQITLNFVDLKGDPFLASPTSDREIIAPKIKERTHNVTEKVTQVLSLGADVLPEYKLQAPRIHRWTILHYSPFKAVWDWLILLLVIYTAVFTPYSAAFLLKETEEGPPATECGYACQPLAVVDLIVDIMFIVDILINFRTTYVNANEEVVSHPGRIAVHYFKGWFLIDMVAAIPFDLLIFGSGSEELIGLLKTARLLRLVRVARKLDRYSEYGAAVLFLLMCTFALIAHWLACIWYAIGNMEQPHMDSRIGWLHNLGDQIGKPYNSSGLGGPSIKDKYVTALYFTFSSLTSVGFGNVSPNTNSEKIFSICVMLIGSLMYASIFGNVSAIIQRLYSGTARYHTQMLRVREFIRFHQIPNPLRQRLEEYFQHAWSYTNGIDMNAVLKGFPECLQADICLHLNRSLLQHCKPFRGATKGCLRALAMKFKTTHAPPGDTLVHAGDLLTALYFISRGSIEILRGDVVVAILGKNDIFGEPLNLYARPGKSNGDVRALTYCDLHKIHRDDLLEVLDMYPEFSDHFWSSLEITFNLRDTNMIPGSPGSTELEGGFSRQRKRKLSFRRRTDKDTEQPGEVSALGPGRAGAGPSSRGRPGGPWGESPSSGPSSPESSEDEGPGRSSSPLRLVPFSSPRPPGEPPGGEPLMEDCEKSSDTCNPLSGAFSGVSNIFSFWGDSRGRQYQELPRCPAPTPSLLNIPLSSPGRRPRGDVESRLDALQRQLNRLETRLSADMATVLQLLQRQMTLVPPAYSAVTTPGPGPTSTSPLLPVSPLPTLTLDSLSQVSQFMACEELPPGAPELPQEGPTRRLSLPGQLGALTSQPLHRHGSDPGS
T2 sequence (Q12809 whole entry): as above

**Q.** What does the source list for Cc1cc(NC(=O)Nc2ccc(F)c(F)c2)n(-c2ccccc2)n1 [VU0456810, 1-(3,4-difluorophenyl)-3-(3-methyl-1-phenyl-1H-pyrazol-5-yl)urea]?
**A.** IC50 ([1]; read-out: IC50): ~10 µM; IC50 ([1]; average ± SEM, read-out: Potency): 10.1 ± 7 µM; inhibition at 20 min, 100 µM [2]: ~60%; EC50 Thallium Flux [3]: complete inability to modulate; also recorded: Inactive; EC50 Thallium Flux ([3]; listed as 2): inactive

From patent US9067894B1, “Compound, composition, and method of activating GIRK potassium channel and use of same for treating conditions of interest” (Vanderbilt University, priority 2013, dated 2015)
